# According to PubChem BioAssay AID208 (DTP/NCI, 2004):
# Where “and” joins values, the source holds several entries; their conditions need not be identical. Equal entries are not always repeated. Inconclusive results are not listed.
# Tested on: HT29 intrarenal xenograft, nude mice, tumor weight change
# Experiment: NCI In Vivo Anticancer Drug Screen. Data for tumor model HT29;CX-1 Human Adenocarcinoma (MER+) (intrarenal inoculation) in NU/NU BALB/C (nude) mice
# Settings: endpoint: mean tumor weight change, higher = larger tumour
# Procedure: The antitumor activity of compounds was measured in mice bearing transplantable tumors. Survival or tumor size were measured and the results are expressed as the measurement made in the treated group (T) divided by the measurement made in the vehicle treated control group (C). The tumor model used in this assay is HT29;CX-1 Human Adenocarcinoma (MER+) (intrarenal inoculation) in NU/NU BALB/C (nude) mice
# [1] = dose: 200.0 mg/kg/injection, schedule: Q04DX004 (sc), vehicle: Klucel (hydroxypropylcellulose) (HPC)
# [2] = dose: 150.0 mg/kg/injection, schedule: Q04DX004 (ip), vehicle: Klucel (hydroxypropylcellulose) (HPC)
# [3] = dose: 300.0 mg/kg/injection, schedule: Q04DX004 (ip), vehicle: Klucel (hydroxypropylcellulose) (HPC)
# [4] = dose: 600.0 mg/kg/injection, schedule: Q04DX004 (ip), vehicle: Klucel (hydroxypropylcellulose) (HPC)
# [5] = dose: 2400.0 mg/kg/injection, schedule: Q04DX004 (sc), vehicle: saline with Tween-80
smiles,measurement,setting,value
CC12CCC3C(CCC4CC(OC(=O)Cc5ccc(N(CCCl)CCCl)cc5)CCC43C)C1CCC(=O)N2 (stereo not given),T/C,"dose: 12.5 mg/kg/injection, schedule: Q04DX004 (sc), vehicle: saline with Tween-80",99 % of control
same,T/C,"dose: 25.0 mg/kg/injection, schedule: Q04DX004 (sc), vehicle: saline with Tween-80",109 % of control
same,T/C,"dose: 50.0 mg/kg/injection, schedule: Q04DX004 (sc), vehicle: saline with Tween-80",77 % of control
same,T/C,"dose: 100.0 mg/kg/injection, schedule: Q04DX004 (sc), vehicle: saline with Tween-80",38 % of control
C=CC(C)(C)n1cc(C2=C(O)C(=O)C(c3cn(C(C)(C)C=C)c4ccccc34)=C(O)C2=O)c2ccccc21,T/C,"dose: 25.0 mg/kg/injection, schedule: Q04DX004 (sc), vehicle: Klucel (hydroxypropylcellulose) (HPC)",113 % of control
same,T/C,"dose: 100.0 mg/kg/injection, schedule: Q04DX004 (sc), vehicle: Klucel (hydroxypropylcellulose) (HPC)",118 % of control
same,T/C,[1],121 % of control
CC(=O)OC(C)C1C2=C(C(=O)CC1(C)O)C(=O)c1c(ccc(-c3ccc4c(c3O)C(=O)C3=C(C4=O)C(C(C)OC(C)=O)C(C)(O)CC3=O)c1O)C2=O (stereo not given),T/C,"dose: 0.94 mg/kg/injection, schedule: Q04DX004 (ip), vehicle: saline with Tween-80",94 % of control
same,T/C,"dose: 1.9 mg/kg/injection, schedule: Q04DX004 (ip), vehicle: saline with Tween-80",92 % of control
same,T/C,"dose: 3.75 mg/kg/injection, schedule: Q04DX004 (ip), vehicle: saline with Tween-80",88 % of control
same,T/C,"dose: 7.5 mg/kg/injection, schedule: Q04DX004 (ip), vehicle: saline with Tween-80",101 % of control
same,T/C,"dose: 30.0 mg/kg/injection, schedule: Q04DX004 (ip), vehicle: saline with Tween-80",162 % of control
CCCNC1=C(C)C(=O)C2=C(C1=O)[C@H](COC(N)=O)[C@]1(OC)[C@@H]3N[C@@H]3CN21,T/C,"dose: 1.5 mg/kg/injection, schedule: Q04DX004 (sc), vehicle: saline",26 % of control
same,T/C,"dose: 3.0 mg/kg/injection, schedule: Q04DX004 (sc), vehicle: saline",91 % of control
same,T/C,"dose: 6.0 mg/kg/injection, schedule: Q04DX004 (sc), vehicle: saline",87 % of control and 91 % of control
same,T/C,"dose: 12.0 mg/kg/injection, schedule: Q04DX004 (sc), vehicle: saline",5 % of control and 26 % of control
O=C(CCCN1CCC(C(O)c2ccc(F)cc2)CC1)c1ccc(F)cc1 (stereo not given),T/C,"dose: 12.5 mg/kg/injection, schedule: Q04DX004 (ip), vehicle: saline with Tween-80",52 % of control
same,T/C,"dose: 25.0 mg/kg/injection, schedule: Q04DX004 (ip), vehicle: saline with Tween-80",71 % of control
same,T/C,"dose: 50.0 mg/kg/injection, schedule: Q04DX004 (ip), vehicle: saline with Tween-80",106 % of control
same,T/C,"dose: 100.0 mg/kg/injection, schedule: Q04DX004 (ip), vehicle: saline with Tween-80",43 % of control
Nc1nc(=O)n(C2OC(CO)C(O)C2O)cc1F (stereo not given),T/C,"dose: 300.0 mg/kg/injection, schedule: Q04DX004 (ip), vehicle: saline",66 % of control
same,T/C,"dose: 600.0 mg/kg/injection, schedule: Q04DX004 (ip), vehicle: saline",64 % of control
same,T/C,"dose: 900.0 mg/kg/injection, schedule: Q04DX004 (ip), vehicle: saline",53 % of control
same,T/C,"dose: 1200.0 mg/kg/injection, schedule: Q04DX004 (ip), vehicle: saline",88 % of control
O=C1C2CC(Cl)C(SSC3CC4C(=O)N(SC(Cl)(Cl)C(Cl)Cl)C(=O)C4CC3Cl)CC2C(=O)N1SC(Cl)(Cl)C(Cl)Cl (stereo not given),T/C,"dose: 75.0 mg/kg/injection, schedule: Q04DX004 (ip), vehicle: Klucel (hydroxypropylcellulose) (HPC)",56 % of control
same,T/C,[2],58 % of control
same,T/C,[3],39 % of control
same,T/C,[4],35 % of control
CC[C@@]1(O)C(=O)OCc2c1cc1n(c2=O)Cc2cc3ccccc3nc2-1,T/C,"dose: 0.75 mg/kg/injection, schedule: Q04DX004 (sc), vehicle: saline with Tween-80",75 % of control
same,T/C,"dose: 3.0 mg/kg/injection, schedule: Q04DX004 (sc), vehicle: saline with Tween-80",49 % of control
same,T/C,"dose: 6.0 mg/kg/injection, schedule: Q04DX004 (sc), vehicle: saline with Tween-80",48 % of control
same,T/C,"dose: 32.0 mg/kg/injection, schedule: Q04DX004 (sc), vehicle: saline with Tween-80",8 % of control
C=C(NC(=O)C(=C)NC(=O)c1csc(C2=NC3c4csc(n4)C4NC(=O)c5csc(n5)C(C(C)(O)C(C)O)NC(=O)C5CSC(=N5)/C(=C/C)NC(=O)C(C(C)O)NC(=O)c5csc(n5)C3(CC2)NC(=O)C(C)NC(=O)C(=C)NC(=O)C(C)NC(=O)C(C(C)CC)NC2C=Cc3c(C(C)O)cc(nc3C2O)C(=O)OC4C)n1)C(N)=O (stereo not given),T/C,"dose: 400.0 mg/kg/injection, schedule: Q01DX010 (sc), vehicle: Klucel (hydroxypropylcellulose) (HPC)",81 % of control
same,T/C,"dose: 800.0 mg/kg/injection, schedule: Q01DX010 (sc), vehicle: Klucel (hydroxypropylcellulose) (HPC)",96 % of control
same,T/C,"dose: 1600.0 mg/kg/injection, schedule: Q01DX010 (sc), vehicle: Klucel (hydroxypropylcellulose) (HPC)",44 % of control
same,T/C,"dose: 2400.0 mg/kg/injection, schedule: Q01DX010 (sc), vehicle: Klucel (hydroxypropylcellulose) (HPC)",71 % of control
CC[C@@]1(O)C(=O)OCc2c1cc1n(c2=O)Cc2cc3cc(O)ccc3nc2-1,T/C,"dose: 8.0 mg/kg/injection, schedule: Q04DX004 (sc), vehicle: saline",2 % of control
same,T/C,"dose: 16.0 mg/kg/injection, schedule: Q04DX004 (sc), vehicle: saline",-74 % of control
same,T/C,"dose: 32.0 mg/kg/injection, schedule: Q04DX004 (sc), vehicle: saline",-92 % of control
C[C@]12CCC(=O)C(O)=C1CC[C@@H]1[C@@H]2CC[C@]2(C)C(=O)CC[C@@H]12,T/C,[2],84 % of control
same,T/C,[3],94 % of control
same,T/C,[4],67 % of control
same,T/C,"dose: 1200.0 mg/kg/injection, schedule: Q04DX004 (ip), vehicle: Klucel (hydroxypropylcellulose) (HPC)",84 % of control
C/C=C/C=C/c1cc2cc3c(c(O)c2c(=O)[nH]1)C1(CC3)C(O)=c2c(=O)c3c(=O)cc(OC)c(=O)c=3c(=O)c2=C1O (stereo not given),T/C,"dose: 6.0 mg/kg/injection, schedule: Q04DX004 (sc), vehicle: DMSO",75 % of control
same,T/C,"dose: 12.0 mg/kg/injection, schedule: Q04DX004 (sc), vehicle: DMSO",77 % of control
same,T/C,"dose: 24.0 mg/kg/injection, schedule: Q04DX004 (sc), vehicle: DMSO",61 % of control
same,T/C,"dose: 48.0 mg/kg/injection, schedule: Q04DX004 (sc), vehicle: DMSO",58 % of control
NC(CNC(=O)CBr)C(=O)O (stereo not given),T/C,"dose: 37.5 mg/kg/injection, schedule: Q04DX004 (sc), vehicle: water",106 % of control
same,T/C,"dose: 75.0 mg/kg/injection, schedule: Q04DX004 (sc), vehicle: water",96 % of control
same,T/C,"dose: 150.0 mg/kg/injection, schedule: Q04DX004 (sc), vehicle: water",43 % of control
C[C@H]1C[C@@H]2[C@H]([C@@H](O)C[C@@]3(C)[C@H]2CC[C@]3(O)C(=O)CO)[C@@]2(C)C=CC(=O)C=C12,T/C,[1],14 % of control
same,T/C,"dose: 400.0 mg/kg/injection, schedule: Q04DX004 (sc), vehicle: Klucel (hydroxypropylcellulose) (HPC)",19 % of control
same,T/C,"dose: 800.0 mg/kg/injection, schedule: Q04DX004 (sc), vehicle: Klucel (hydroxypropylcellulose) (HPC)",29 % of control
CO[C@H](/C(C)=C/C=C/C(C)=C/c1coc(C)n1)[C@H](C)[C@H]1C[C@@H](O)[C@@]2(C)O[C@H]2/C=C/[C@@H](C)[C@@H]2C[C@@H](CC(=O)O2)C[C@H]2O[C@@H]2C(=O)O1,T/C,"dose: 0.13 mg/kg/injection, schedule: Q04DX004 (sc), vehicle: Klucel (hydroxypropylcellulose) (HPC)",73 % of control and 88 % of control
same,T/C,"dose: 1.0 mg/kg/injection, schedule: Q04DX004 (sc), vehicle: Klucel (hydroxypropylcellulose) (HPC)",57 % of control
C[C@]12CC[C@H](O)CC1=CC[C@@H]1[C@@H]2CC[C@]2(C)C(=O)CC[C@@H]12,T/C,[5],73 % of control
O=c1[nH]c(=O)n([C@H]2CCCO2)cc1F,T/C,"dose: 46.4 mg/kg/injection, schedule: Q01DX010 (ip), vehicle: Klucel (hydroxypropylcellulose) (HPC)",41 % of control
same,T/C,"dose: 69.8 mg/kg/injection, schedule: Q01DX010 (ip), vehicle: Klucel (hydroxypropylcellulose) (HPC)",68 % of control
same,T/C,"dose: 104.6 mg/kg/injection, schedule: Q04DX004 (ip), vehicle: Klucel (hydroxypropylcellulose) (HPC)",61 % of control
same,T/C,"dose: 157.4 mg/kg/injection, schedule: Q04DX004 (ip), vehicle: Klucel (hydroxypropylcellulose) (HPC)",40 % of control
same,T/C,"dose: 157.8 mg/kg/injection, schedule: Q01DX010 (ip), vehicle: Klucel (hydroxypropylcellulose) (HPC)",31 % of control
same,T/C,"dose: 236.7 mg/kg/injection, schedule: Q04DX004 (ip), vehicle: Klucel (hydroxypropylcellulose) (HPC)",53 % of control
Nc1nc(-c2ccccc2)c(Br)c(=O)[nH]1,T/C,"dose: 300.0 mg/kg/injection, schedule: Q04DX004 (sc), vehicle: saline with Tween-80",124 % of control
same,T/C,"dose: 600.0 mg/kg/injection, schedule: Q04DX004 (sc), vehicle: saline with Tween-80",117 % of control
same,T/C,[5],102 % of control
